From US7208505B2, “β3 adrenergic agonists” (Eli Lilly and Company, priority 2001, dated 2007)

biological target: T1, human β3 adrenergic receptor (Homo sapiens, UniProt P13945); assay: whole cell receptor coupled c-AMP assay (Emax relative to isoproterenol); type: cell-based; settings: % intrinsic activity: maximal response divided by isoproterenol maximal response times 100; transfected CHO cells; average of at least 3 runs
T1 construct: expressed in transfected cells
Procedure, shortened: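 Stably transfected CHO DXB-11 cells expressing human β3 receptor incubated 20 min at 37 °C with compound in HBSS/HEPES pH 7.4 containing 1 mM IBMX. cAMP measured by SPA; four-parameter logistic fit, Emax = maximal response as % of isoproterenol maximum.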

T1 sequence (P13945 whole entry): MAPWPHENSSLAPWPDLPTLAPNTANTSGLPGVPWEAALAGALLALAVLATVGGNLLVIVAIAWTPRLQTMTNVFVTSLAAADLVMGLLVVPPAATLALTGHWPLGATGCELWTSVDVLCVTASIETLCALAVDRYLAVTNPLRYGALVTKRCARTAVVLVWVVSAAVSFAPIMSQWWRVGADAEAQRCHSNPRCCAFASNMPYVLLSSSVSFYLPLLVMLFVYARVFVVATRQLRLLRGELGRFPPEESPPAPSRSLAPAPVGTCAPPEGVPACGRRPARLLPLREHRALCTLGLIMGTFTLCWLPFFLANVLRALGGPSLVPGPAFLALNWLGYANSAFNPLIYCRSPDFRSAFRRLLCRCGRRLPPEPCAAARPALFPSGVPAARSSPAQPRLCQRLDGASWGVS

| Emax (%) ± SEM [%] | Structure (SMILES) |
| --- | --- |
| 36.1 ± 7.6 | COC(=O)c1ccc(-c2ccccc2OC[C@@H](O)CNC(C)(C)Cc2c[nH]c3ccccc23)s1 [Example 124] |
| 34.8 ± 3.2 | C[C@H](Cn1ccc2ccccc21)NC[C@H](O)COc1ccccc1-c1nccs1 [Example 66] |
| 63.9 ± 1.6 | Cc1cc(-c2ccccc2OC[C@@H](O)CNC(C)(C)Cc2c[nH]c3ccccc23)on1 [Example 36] |
| 55.6 ± 6.0 | CC(C)(NC[C@H](O)COc1ccccc1-c1cccs1)C(=O)N1CCc2ccccc21 [Example 192] |
| 38.4 ± 3.2 | CC(=O)c1ccc(-c2cccc3c(CC(C)(C)NC[C@H](O)COc4ccccc4-n4cccc4)c[nH]c23)cc1 [Example 50] |
| 79.0 ± 2.9 | CC(C)(Cc1c[nH]c2c(OCC(=O)NS(C)(=O)=O)cccc12)NC[C@H](O)COc1ccccc1-c1cccs1 [Example 176] |
| 76.5 ± 12.6 | CC(C)(Cc1c[nH]c2c(OCC#N)cccc12)NC[C@H](O)COc1ccccc1-c1cccs1 [Example 101] |
| 41.9 ± 4.5 | COC(=O)c1ccc(-c2cccc3c(CC(C)(C)NC[C@H](O)COc4ccccc4-n4cccc4)c[nH]c23)cc1 [Example 45] |
| 62.4 ± 2.1 | CC(C)(Cc1c[nH]c2ccccc12)NC[C@H](O)COc1ccccc1-c1cocn1 [Example 31] |
| 53.6 ± 1.4 | CC(C)(Cc1c[nH]c2c(OCC#N)cccc12)NC[C@H](O)COc1ccccc1-c1ccon1 [Example 132] |
| 78.1 ± 4.6 | CC(C)(Cc1c[nH]c2c(OCC(=O)[O-])cccc12)NC[C@H](O)COc1ccccc1-c1cccs1.[Na+] [Example 225] |
| 32.0 ± 5.5 | CC(C)(NC[C@H](O)COc1ccccc1-c1ccon1)C(=O)N1CCc2ccccc21 [Example 193] |
| 28.3 ± 2.6 | CC(C)(Cc1c[nH]c2ccc(C#N)cc12)NC[C@H](O)COc1ccccc1-c1cccs1 [Example 74] |
| 64.5 ± 2.1 | CC(C)(Cc1c[nH]c2ccccc12)NC[C@H](O)COc1ccccc1-c1cnco1 [Example 34] |
| 58.3 ± 1.3 | CC(C)(Cc1c[nH]c2ccccc12)NC[C@H](O)COc1ccccc1-c1ccsc1.Cl [Example 51] |
| 76.1 ± 2.9 | CC(C)(Cc1c[nH]c2ccccc12)NC[C@H](O)COc1ccccc1-c1ccc(F)s1 [Example 126] |
| 53.9 ± 2.6 | CC(C)(Cc1c[nH]c2ccccc12)NC[C@H](O)COc1ccccc1-c1ccon1 [Example 164] |
| 47.7 ± 1.6 | CC(=O)Nc1ccc(-c2cccc3c(CC(C)(C)NC[C@H](O)COc4ccccc4-c4ccon4)c[nH]c23)cc1 [Example 183] |
| 37.1 ± 4.0 | C[C@H](Cn1ccc2ccccc21)NC[C@H](O)COc1ccccc1-c1ccon1 [Example 165] |
| 97.7 ± 5.9 | CC(C)(Cc1c[nH]c2c(Oc3ncccc3C#N)cccc12)NC[C@H](O)COc1ccccc1-c1cccs1 [Example 112] |
| 68.9 ± 2.6 | CC(C)(Cc1c[nH]c2c(OCC(N)=O)cccc12)NC[C@H](O)COc1ccccc1-n1cccc1 [Example 3] |
| 65.5 ± 4.7 | CC(C)(Cc1c[nH]c2c(OCC#N)cccc12)NC[C@H](O)COc1ccccc1-c1cccs1 [Example 137] |
| 66.6 ± 3.1 | COC(=O)c1ccc(-c2cccc3c(CC(C)(C)NC[C@H](O)COc4ccccc4-c4cccs4)c[nH]c23)cc1 [Example 43] |

| Emax (%) ± SEM [%] | Structure (SMILES) |
| --- | --- |
| 39.1 ± 7.1 | COC(=O)c1cccc2[nH]cc(CC(C)(C)NC[C@H](O)COc3ccccc3-c3cccs3)c12 [Example 69] |
| 56.6 ± 2.7 | CC(C)(Cc1c[nH]c2c(C(=O)O)cccc12)NC[C@H](O)COc1ccccc1-c1ccsc1 [Example 61] |
| 23.6 ± 1.7 | C[C@@H](NC[C@H](O)COc1ccccc1-c1cccs1)C(=O)N1CCc2ccccc21 [Example 131] |
| 61.0 ± 4.5 | CCOC(=O)c1cccc(-c2cccc3c(CC(C)(C)NC[C@H](O)COc4ccccc4-n4cccc4)c[nH]c23)c1 [Example 42] |
| 59.2 ± 2.2 | CC(C)(Cc1c[nH]c2ccccc12)NC[C@H](O)COc1cccnc1-c1cccs1 [Example 125] |
| 85.6 ± 7.8 | CC(C)(Cc1c[nH]c2ccccc12)NC[C@H](O)COc1ccccc1-c1ccc(S(N)(=O)=O)s1 [Example 191] |
| 57.9 ± 6.2 | CC(C)(Cc1c[nH]c2c(-c3ccsc3)cccc12)NC[C@H](O)COc1ccccc1-c1ccon1 [Example 107] |
| 64.2 ± 7.6 | CC(C)(Cc1c[nH]c2cccc(F)c12)NC[C@H](O)COc1ccccc1-c1cccs1 [Example 162] |
| 58.9 ± 1.9 | CC(C)(Cc1c[nH]c2ccccc12)NC[C@H](O)COc1ccccc1-n1cccc1 [Example 32] |
| 78.4 ± 0.2 | CC(C)(Cc1c[nH]c2cc(C(=O)O)ccc12)NC[C@H](O)COc1ccccc1-c1ccc(S(N)(=O)=O)s1 [Example 55] |
| 75.9 ± 1.9 | CC(C)(Cc1c[nH]c2ccccc12)NC[C@H](O)COc1ccccc1-c1ncco1 [Example 33] |
| 28.6 ± 3.4 | C[C@H](Cn1ccc2ccc(OCC#N)cc21)NC[C@H](O)COc1ccccc1-c1cccs1 [Example 67] |
| 71.2 ± 1.2 | CC(C)(Cc1c[nH]c2c(F)cccc12)NC[C@H](O)COc1ccccc1-c1cccs1 [Example 170] |
| 47.4 ± 1.8 | CC(C)(Cc1c[nH]c2ccc(C(N)=O)cc12)NC[C@H](O)COc1ccccc1-c1cccs1 [Example 71] |
| 79.3 ± 7.1 | COC(=O)CCc1cccc2c(CC(C)(C)NC[C@H](O)COc3ccccc3-c3cccs3)c[nH]c12 [Example 145] |
| 59.2 ± 1.0 | CC(C)(Cc1c[nH]c2c(-c3ccc(C(F)(F)F)cc3)cccc12)NC[C@H](O)COc1ccccc1-c1cccs1 [Example 104] |
| 83.5 ± 2.7 | CC(C)(Cc1c[nH]c2c(CCC(N)=O)cccc12)NC[C@H](O)COc1ccccc1-c1cccs1 [Example 140] |
| 63.8 ± 0.5 | CC(C)(Cc1c[nH]c2cc(C(=O)O)ccc12)NC[C@H](O)COc1ccccc1-c1ccsc1 [Example 62] |
| 66.0 ± 3.6 | CC(C)(Cc1c[nH]c2c(OCC#N)cccc12)NCC(O)COc1ccccc1-c1ccoc1 (stereo not drawn) [Example 5] |
| 39.6 ± 0.7 | COC(=O)c1ccc(-c2cccc3c(CC(C)(C)NC[C@H](O)COc4ccccc4-c4cccs4)c[nH]c23)s1 [Example 181] |
| 69.3 ± 1.3 | CC(C)(Cc1c[nH]c2cc(C=CC#N)ccc12)NC[C@H](O)COc1ccccc1-c1cccs1 [Example 190] |
| 86.5 ± 5.5 | CC(C)(Cc1c[nH]c2c(C=CC(N)=O)cccc12)NCC(O)COc1ccccc1-c1cccs1 (stereo not drawn) [Example 139] |

| Structure (SMILES) | Emax (%) ± SEM [%] |
| --- | --- |
| Cc1ccc(-c2ccccc2OC[C@@H](O)CNC(C)(C)Cc2c[nH]c3c(OCC#N)cccc23)s1.O=C(O)C(F)(F)F [Example 14] | 75.2 ± 3.0 |
| CC(C)(Cc1c[nH]c2c(OCC#N)cccc12)NC[C@H](O)COc1ccccc1-c1ncco1.O=C(O)C(F)(F)F [Example 8] | 82.2 ± 3.8 |
| Cc1csc(-c2ccccc2OC[C@@H](O)CNC(C)(C)Cc2c[nH]c3c(OCC#N)cccc23)c1.O=C(O)C(F)(F)F [Example 22] | 66.0 ± 0.9 |
| Cc1cc(-c2ccccc2OC[C@@H](O)CNC(C)(C)Cc2c[nH]c3c(OCC#N)cccc23)on1.O=C(O)C(F)(F)F [Example 10] | 63.2 ± 5.3 |
| CC(C)(Cc1c[nH]c2c(OCC#N)cccc12)NC[C@H](O)COc1ccccc1-n1cccc1 [Example 1] | 64.1 ± 4.5 |
| C[C@@H](Cc1c[nH]c2c(OCC#N)cccc12)NC[C@H](O)COc1ccccc1-c1nncs1 [Example 161] | 21.7 ± 3.1 |
| Cc1csc(-c2ccccc2OC[C@@H](O)CNC(C)(C)Cc2c[nH]c3ccccc23)c1.O=C(O)C(F)(F)F [Example 21] | 61.3 ± 3.2 |

same assay, conditions: CHO, % intrinsic activity: maximal response divided by isoproterenol maximal response times 100; transfected CHO cells; average of at least 3 runs

| Emax [%] | Structure (SMILES) |
| --- | --- |
| 81.2 ± 0.9 | CC(C)(Cc1c[nH]c2c(CCn3cncn3)cccc12)NC[C@H](O)COc1ccccc1-c1cccs1 [Example 222] |
| 79.5 ± 0.6 | CC(C)(Cc1c[nH]c2c(CCC(=O)O)cccc12)NC[C@H](O)COc1ccccc1-c1cccs1 [Example 228] |
| 78.7 ± 2.4 | CC(C)(Cc1c[nH]c2cc(C(=O)O)ccc12)NC[C@H](O)COc1ccccc1-c1cccs1 [Example 240] |
| 85.9 ± 9.4 | CC(C)(CC1=CCc2c(Oc3ccc(C(N)=O)cn3)cccc21)NC[C@H](O)COc1ccccc1-c1cccs1 [Example 219] |
| 56.1 ± 2.8 | CC(C)(Cc1c[nH]c2c(OCC(=O)O)cccc12)NC[C@H](O)COc1ccccc1-c1ccon1 [Example 223] |
| 81.6 ± 4 | CC(C)(Cc1c[nH]c2c(CCc3cnccn3)cccc12)NC[C@H](O)COc1ccccc1-c1cccs1 [Example 253] |
| 48.4 ± 2.5 | C[C@H](Cn1ccc2cc(C(=O)O)ccc21)NC[C@H](O)COc1ccccc1-c1cccs1 [Example 243] |
| 83.9 ± 3.2 | CC(C)(Cc1c[nH]c2cc(CCc3nnn[nH]3)ccc12)NC[C@H](O)COc1ccccc1-c1cccs1 [Example 255] |
| 82.3 ± 4 | CC(C)(Cc1c[nH]c2cc(/C=C/c3nnn[nH]3)ccc12)NC[C@H](O)COc1ccccc1-c1cccs1 [Example 252] |
| 84.1 ± 1.8 | CC(C)(Cc1c[nH]c2c(-c3cccc(C(=O)O)c3)cccc12)NC[C@H](O)COc1ccccc1-c1cccs1 [Example 248] |
| 59.6 ± 2.8 | C[C@H](Cn1ccc2c(C(=O)O)cccc21)NC[C@H](O)COc1ccccc1-c1cccs1 [Example 242] |
| 69.6 ± 3.5 | CC(C)(Cc1c[nH]c2ccc(C(=O)O)cc12)NC[C@H](O)COc1ccccc1-c1cccs1 [Example 239] |
| 54.6 ± 2.4 | CC(C)(Cc1c[nH]c2c(-c3ccc(C(=O)O)cc3)cccc12)NC[C@H](O)COc1ccccc1-c1ccon1 [Example 247] |
| 87.5 ± 7.5 | CC(C)(Cc1c[nH]c2c(/C=C/C(=O)O)cccc12)NC[C@H](O)COc1ccccc1-c1cccs1 [Example 227] |
